According to the supplement of paper PMC10307832:

Legend:
Experiment in all cases: relative viability (nuclei count vs DMSO), 5 days (fraction); higher = more cells survive
Carboplatin = compound: C1CC(C1)(C(=O)O)C(=O)O.[NH2-].[NH2-].[Pt+2] [Carboplatin]
Procedure, shortened: (§1)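 Lung cancer cell lines received five library-drug doses (not always all listed) spaced by √10, pinned on vehicle-anchored 1536-well plates after an overnight stay at 37 °C. Five days later, with no medium change, nuclei were Hoechst-stained, imaged at 4× and counted with MetaXpress. Viability is treated-well nuclei relative to vehicle-well nuclei, as a median across plates. Passing plates had control CV below 25% and at least one doubling.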

GSK126 = compound: CC[C@H](C)N1C=C(C2=C(C=C(C=C21)C3=CN=C(C=C3)N4CCNCC4)C(=O)NCC5=C(C=C(NC5=O)C)C)C [GSK126]
Procedure, shortened: as §1

MLN4924 = compound: NS(=O)(=O)OC[C@@H]1C[C@@H](n2ccc3c(N[C@H]4CCc5ccccc54)ncnc32)C[C@@H]1O [MLN4924]
Procedure, shortened: as §1

GSK126 + Crizotinib = compound: CC[C@H](C)N1C=C(C2=C(C=C(C=C21)C3=CN=C(C=C3)N4CCNCC4)C(=O)NCC5=C(C=C(NC5=O)C)C)C [GSK126] + C[C@@H](Oc1cc(-c2cnn(C3CCNCC3)c2)cnc1N)c1c(Cl)ccc(F)c1Cl [Crizotinib] (partner 1 µM)
Procedure, shortened: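 Nuclei were stained with Hoechst during a one-step fixation (final 0.05% Triton X-100, 1% formaldehyde, 1 ug/ml Hoechst) carried out 5 days after dosing, then counted on 4× images. The cells, lung cancer lines in 1536-well plates, had been dosed by pin tool the day after seeding with one drug alone or a fixed anchor-drug dose plus five library-drug doses (not always all listed) in √10 steps. Relative viability is the nuclei count in treated wells divided by that in vehicle wells, and each value is the median of duplicate plates.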

Row | Cell Line | relative viability (Carboplatin; 0.08 µM) | relative viability (Carboplatin; 0.253 µM) | relative viability (Carboplatin; 0.8 µM) | relative viability (Carboplatin; 2.53 µM) | relative viability (Carboplatin; 8 µM) | relative viability (GSK126; 0.08 µM) | relative viability (GSK126; 0.253 µM) | relative viability (GSK126; 0.8 µM) | relative viability (GSK126; 2.53 µM) | relative viability (GSK126; 8 µM) | relative viability (MLN4924; 0.04 µM) | relative viability (MLN4924; 0.1265 µM) | relative viability (MLN4924; 0.4 µM) | relative viability (MLN4924; 1.265 µM) | relative viability (MLN4924; 4 µM) | relative viability (GSK126 + Crizotinib; first compound 0.08 µM) | relative viability (GSK126 + Crizotinib; first compound 0.253 µM) | relative viability (GSK126 + Crizotinib; first compound 0.8 µM) | relative viability (GSK126 + Crizotinib; first compound 2.53 µM) | relative viability (GSK126 + Crizotinib; first compound 8 µM)
1 | HCC-15 | 1.03 | 1.05 | 0.964 | 0.94 | 0.864 | 1.07 | 1.03 | 0.988 | 1.01 | 0.909 | 0.62 | 0.483 | 0.158 | 0.0986 | 0.103 | 0.882 | 0.873 | 0.786 | 0.748 | 0.709
2 | HCC-44 | 1.04 | 0.92 | 0.949 | 0.915 | 0.723 | 1.03 | 1 | 1.01 | 0.869 | 1.05 | 0.635 | 0.683 | 0.219 | 0.217 | 0.225 | 0.766 | 0.864 | 0.788 | 0.64 | 0.78
3 | HCC-78 | 1.09 | 0.982 | 1.02 | 0.927 | 0.905 | 0.984 | 1.06 | 1 | 0.976 | 0.904 | 0.968 | 0.771 | 0.849 | 0.323 | 0.265 | 0.306 | 0.326 | 0.318 | 0.328 | 0.374
4 | HCC-366 | 1.04 | 0.974 | 1.03 | 1.02 | 0.95 | 1.12 | 1.03 | 1.02 | 1.01 | 1 | 1.05 | 1.02 | 0.674 | 0.228 | 0.0735 | 0.652 | 0.548 | 0.549 | 0.475 | 0.431
5 | HCC-827 | 1.09 | 1.01 | 1.01 | 1.01 | 0.983 | 1.05 | 1.06 | 1.01 | 1.01 | 0.993 | 0.972 | 0.852 | 0.704 | 0.253 | 0.183 | 0.938 | 0.895 | 0.934 | 1.02 | 0.869
6 | HOP-62 | 1.03 | 1.03 | 1.06 | 0.981 | 0.833 | 1.01 | 1.02 | 1.03 | 0.968 | 0.973 | 0.814 | 0.74 | 0.226 | 0.067 | 0.101 | 0.965 | 0.996 | 0.788 | 0.726 | 0.928
7 | IA-LM | 1.08 | 1.06 | 0.927 | 0.835 | 0.778 | 1.04 | 0.906 | 0.925 | 0.997 | 0.894 | 0.573 | 0.29 | 0.14 | 0.0648 | 0.0764 | 0.831 | 1.12 | 0.79 | 0.729 | 0.947
8 | LC-2-ad | 1.01 | 0.948 | 0.955 | 0.953 | 0.849 | 1.09 | 0.985 | 0.988 | 1.02 | 1.05 | 0.922 | 0.825 | 0.521 | 0.235 | 0.181 | 0.484 | 0.357 | 0.512 | 0.454 | 0.398
9 | LCLC-97TM1 | 1.13 | 0.978 | 1.09 | 1.03 | 0.837 | 0.999 | 0.965 | 0.91 | 1.02 | 1.11 | 0.929 | 0.657 | 0.31 | 0.073 | 0.0774 | 0.337 | – | 0.42 | 0.475 | 0.441
10 | LCLC-103H | 1.03 | 0.989 | 0.992 | 1.07 | 0.834 | 1.02 | 1.03 | 1.01 | 0.994 | 1.01 | 0.949 | 1.02 | 0.912 | 0.282 | 0.312 | 1.07 | 1.18 | 1.01 | 1.01 | 1
11 | LK-2 | 1.11 | 0.943 | 0.947 | 0.937 | 1.06 | 1.01 | 0.988 | 0.985 | 1.08 | 0.994 | 0.971 | 0.787 | 0.618 | 0.245 | 0.239 | 0.282 | 0.224 | 0.243 | 0.252 | 0.206
12 | NCI-H522 | 1.12 | 0.963 | 0.922 | 0.873 | 0.881 | 1.1 | 0.929 | 1.01 | 0.977 | 0.989 | 0.87 | 0.777 | 0.515 | 0.397 | 0.426 | – | – | – | – | –
13 | NCI-H1395 | 1.16 | 0.885 | 0.833 | 0.749 | 0.766 | 1.03 | 0.926 | 0.893 | 1 | 0.957 | 0.868 | 0.951 | 0.618 | 0.354 | 0.381 | – | – | – | – | –
14 | NCI-H1623 | 1.03 | 0.963 | 0.872 | 0.875 | 0.695 | 0.974 | 1.04 | 0.959 | 0.954 | 1 | 0.744 | 0.53 | 0.443 | 0.298 | 0.246 | – | – | – | – | –
15 | NCI-H1648 | 1.13 | 0.878 | 0.871 | 0.6 | 0.813 | 0.932 | 0.783 | 1.07 | 1.2 | 0.725 | 0.635 | 0.448 | 0.329 | 0.246 | 0.32 | – | – | – | – | –
16 | NCI-H1793 | 0.968 | 0.98 | 0.908 | 0.906 | 1.1 | 1.07 | 0.948 | 0.826 | 1.11 | 0.855 | 0.91 | 0.982 | 1.01 | 0.473 | 0.361 | – | – | – | – | –
17 | NCI-H2342 | 1.06 | 0.987 | 1.07 | 1.02 | 0.873 | 1.12 | 1.04 | 1.07 | 1.05 | 1.17 | 1.18 | 0.931 | 0.97 | 0.788 | 0.57 | – | – | – | – | –
18 | SW 900 | 0.808 | 0.774 | 0.822 | 0.837 | 0.68 | 0.844 | 0.853 | 0.788 | 0.896 | 0.892 | 0.68 | 0.825 | 0.384 | 0.21 | 0.184 | – | – | – | – | –
